Data reported in patent US11377442B2, “Small molecule agonists and antagonists of NR2F6 activity” (ZANDER THERAPEUTICS, INC., priority 2016, dated 2022).
Where two headings read alike, the source gives them in different places.

Tests used:
Type in all cases: cell-based
NR2F6 = biological target: T1, NR2F6 (Homo sapiens, UniProt P10588); test: NR2F6 agonist screening, Firefly signal cmpd/DMSO; conditions: first set screening, 10 μM
T1 construct: expressed in transfected cells; also transient transfection
T1 sequence (P10588 1-404): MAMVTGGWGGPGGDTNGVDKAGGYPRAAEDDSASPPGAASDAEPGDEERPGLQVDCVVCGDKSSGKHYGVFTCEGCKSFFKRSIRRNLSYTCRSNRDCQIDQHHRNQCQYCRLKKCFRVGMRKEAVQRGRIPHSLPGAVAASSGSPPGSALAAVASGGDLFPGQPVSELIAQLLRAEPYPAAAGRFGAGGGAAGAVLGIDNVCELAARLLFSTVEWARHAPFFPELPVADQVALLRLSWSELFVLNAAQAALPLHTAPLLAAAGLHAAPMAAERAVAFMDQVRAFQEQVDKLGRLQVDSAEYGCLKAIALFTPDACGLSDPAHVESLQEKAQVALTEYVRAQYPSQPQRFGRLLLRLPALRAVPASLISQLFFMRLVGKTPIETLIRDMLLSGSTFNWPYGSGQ

ERα = biological target: T2, ERα (Homo sapiens, UniProt P03372); test: Counterscreening, Firefly signal with ERα transient transfection (Firefly_ERa); conditions: ERα transient transfection, 10 μM
T2 construct: expressed in transfected cells
T2 sequence (P03372 1-595): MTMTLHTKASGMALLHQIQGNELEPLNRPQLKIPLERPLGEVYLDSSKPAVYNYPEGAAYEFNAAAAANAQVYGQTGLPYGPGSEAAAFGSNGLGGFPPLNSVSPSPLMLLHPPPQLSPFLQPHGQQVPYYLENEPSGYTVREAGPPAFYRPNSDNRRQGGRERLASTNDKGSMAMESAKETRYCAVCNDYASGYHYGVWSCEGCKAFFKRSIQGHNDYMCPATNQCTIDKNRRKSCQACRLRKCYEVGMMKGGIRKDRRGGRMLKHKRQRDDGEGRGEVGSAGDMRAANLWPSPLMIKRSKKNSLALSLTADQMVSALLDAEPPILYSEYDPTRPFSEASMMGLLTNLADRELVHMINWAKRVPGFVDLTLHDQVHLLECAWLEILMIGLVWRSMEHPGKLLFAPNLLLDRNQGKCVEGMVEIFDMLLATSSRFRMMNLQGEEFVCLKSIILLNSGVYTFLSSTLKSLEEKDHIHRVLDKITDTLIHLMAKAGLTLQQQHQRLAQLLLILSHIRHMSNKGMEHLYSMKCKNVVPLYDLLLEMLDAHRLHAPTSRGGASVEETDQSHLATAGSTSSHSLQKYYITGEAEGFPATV
Protocol: The methodology for screening candidate compounds as NR2F6 agonists was as follows: For primary screening, hit criteria was ACT %>DMSO control+5*SD (DSO control) at 10 μM, or any compound with S/B>2. For rescreening, hit criteria was ACT %>DMSO control+3*SD (DSO control) in each replicate at 10 μM. For counterscreening, hit criteria was mean ACT<DMSO control+3*SD (DMSO control) with ERα transient transfection in duplicate at 10 μM.

Renilla = Renilla signal in NR2F6 agonist screening, cmpd/DMSO; conditions: first set screening, 10 μM; for fold induction at 10 µM: Renilla
Renilla_ERa = test: Renilla signal in ERα counterscreen (Renilla_ERa); conditions: ERα transient transfection, 10 μM
[1] = repeat 1, read-out: Renilla, cmpd/DMSO repeat 1
[2] = repeat 2, read-out: Renilla, cmpd/DMSO repeat 2
[3] = repeat 1, read-out: Renilla_ERa, cmpd/DMSO repeat 1
[4] = repeat 2, read-out: Renilla_ERa, cmpd/DMSO repeat 2

Firefly, cmpd/DMSO repeat 1 (NR2F6) | Firefly, cmpd/DMSO repeat 2 (NR2F6) | Firefly_ERa, cmpd/DMSO repeat 1 (ERα) | Firefly_ERa, cmpd/DMSO repeat 2 (ERα) | Structure (SMILES) | fold induction at 10 µM (Renilla; [1]) | fold induction at 10 µM (Renilla; [2]) | fold induction at 10 µM (Renilla_ERa; [3]) | fold induction at 10 µM (Renilla_ERa; [4]) | Renilla, cmpd/DMSO repeat 1 (Renilla; repeat 1) | Renilla, cmpd/DMSO repeat 2 (Renilla; repeat 2) | Renilla_ERa, cmpd/DMSO repeat 1 (Renilla_ERa; repeat 1) | Renilla_ERa, cmpd/DMSO repeat 2 (Renilla_ERa; repeat 2)
3.8 | 3.8 | 2.5 | 1.9 | O=C(Nc1ccc(Cl)cn1)c1ccc(I)cc1 [Compound 18] | 3.3 | 4.2 | 0.8 | 0.9 | – | – | – | –
2.7 | 1.9 | 2.5 | 2.4 | CNC(=O)c1ccc2c(c1)N=C(C)c1cc(C)ccc1S2 [Compound C9] | 2.4 | 2.5 | 0.9 | 1 | – | – | – | –
2.7 | 2.3 | 1.0 | 0.9 | CCn1c(=O)c2cc(C(=O)Nc3ccc4c(C)cc(=O)oc4c3)sc2c2ccccc21 [Compound C16] | 3.9 | 3.2 | 0.9 | 1.1 | – | – | – | –
2.0 | 2.3 | 1.3 | 1.6 | CCc1ccc(OCC(=O)Nc2cc(-c3nc4cc(C)ccc4o3)ccc2C)cc1 [Compound 24] | – | – | – | – | 2.4 | 2.2 | 0.9 | 1.0
